Source: paper PMC3610419, “A Randomized, Double-Blind Placebo Controlled Trial of Balapiravir, a Polymerase Inhibitor, in Adult Dengue Patients” (The Journal of Infectious Diseases, 2012)
Read-outs that look alike come from different tables or passages of the source.

Experiments:
[1] = test system: DENV-2; assay: Inhibition of DENV replication in Huh-7 cells, viral RNA by quantitative real time PCR; format: cell-based, dengue virus; details: 48 hrs, mean ± SD of 3 experiments
Procedure: (§1) ^a Each experiment was done in duplicate. The mean and standard deviation shown represent 3 independent (different date) experiments for each virus tested. Huh-7 cells were plated in 96-well plate at 10,000 cells/well in DMEM containing 10 % FBS in 100 μl volume one day prior to set up of the assay. The following day the medium was aspirated off and diluted virus at a multiplicity of infection of 0.5 or media was added to the assay and control wells, respectively. The virus was allowed to attach to the cells for two hours at 37°C in a humidified 5% C02 atmosphere while the dilutions of the test molecule were prepared. Test molecules (or medium as a control) were added after aspiration of the virus-containing media 2 hours post-infection in 3-fold dilutions at a final DMSO concentration of 1%. After 48 hrs, cells were washed and cellular RNA were isolated. In this study, we used a quantitative real time PCR method to quantitate dengue viral RNA in Huh-7 in the presence of inhibitors. Viral RNA and endogenous 18S rRNA control (Applied Bio System) was quantified by a real time PCR assay using the following primers. Dengue Reverse (Common to all the serotypes): 5’-[…]-3’, Dengue forward serotype 1: 5’-[…]-3’, Dengue forward serotype 2 or 3: 5’-[…]-3’, Dengue forward serotype 4: 5’-[…] -3’ and Dengue probe (Common to all the serotypes): 5'-/56-FAM/[…]/3BHQ_1/-3'. Taqman was performed in duplicate. IC50 was obtained using the following calculations. First ΔCt was calculated by subtracting 18S rRNA CT value from dengue RNA CT value. ΔCts from duplicate taqman assay were averaged. Then ΔΔCt was obtained by subtracting the average ΔCt of non-treated sample from the treated sample average ΔCt. Relative quantification was calculated using the following formula. Relative quantification = 2^-averageΔΔCT. The 50% inhibitory concentrations (EC50) were calculated using the sigmoidal dose-response model in Microsoft XLfit.

[2] = test system: DENV-3; assay: as above; format: cell-based, dengue virus; details: 48 hrs, mean ± SD of 3 experiments
Procedure: as §1

[3] = test system: DENV-1; assay: as above; format: cell-based, dengue virus; details: 48 hrs, mean ± SD of 3 experiments
Procedure: as §1

[4] = test system: DENV-4; assay: as above; format: cell-based, dengue virus; details: 48 hrs, mean ± SD of 3 experiments
Procedure: as §1

[5] = test system: DENV reference strains and clinical isolates; assay: Inhibition of DENV replication in Huh-7 cells, summary over all strains; format: cell-based, dengue virus
Procedure: The mean and standard deviation shown represent 3 independent (different date) experiments for each virus tested. Huh-7 cells were plated in 96-well plate at 10,000 cells/well in DMEM containing 10 % FBS in 100 μl volume one day prior to set up of the assay. The following day the medium was aspirated off and diluted virus at a multiplicity of infection of 0.5 or media was added to the assay and control wells, respectively. The virus was allowed to attach to the cells for two hours at 37°C in a humidified 5% C02 atmosphere while the dilutions of the test molecule were prepared. Test molecules (or medium as a control) were added after aspiration of the virus-containing media 2 hours post-infection in 3-fold dilutions at a final DMSO concentration of 1%. After 48 hrs, cells were washed and cellular RNA were isolated. In this study, we used a quantitative real time PCR method to quantitate dengue viral RNA in Huh-7 in the presence of inhibitors. Viral RNA and endogenous 18S rRNA control (Applied Bio System) was quantified by a real time PCR assay using the following primers. […] Taqman was performed in duplicate. […] First ΔCt was calculated by subtracting 18S rRNA CT value from dengue RNA CT value. ΔCts from duplicate taqman assay were averaged. […] Relative quantification was calculated using the following formula. Relative quantification = 2^-averageΔΔCT. […]

[6] = test system: DENV-1, DENV-2, and DENV-4; assay: Activity against DENV in primary human macrophages; format: cell-based; details: Dengue virus, Macrophage, DENV-1, DENV-2, DENV-4, data not shown, read-out: mean EC50 range
[7] = clinical; details: human, in vivo
Procedure: Randomization to treatment group was by computer-generated randomization sequencing in blocks of 2. Balapiravir was formulated in a 500-mg film-coated tablet. The placebo consisted of an identical looking tablet containing excipient only. All balapiravir and placebo tablets were provided by F. Hoffmann-La Roche. Patients in cohort 1 (n = 20) received 1500 mg of balapiravir or an identical placebo orally every 12 hours for 5 days (10 doses). The decision to dose escalate (to 3000 mg) was made after review of the partially unblinded group mean clinical and laboratory data acquired from patients in cohort 1. Patients in cohort 2 (n = 44) received 3000 mg of balapiravir or placebo orally twice a day for 5 days (10 doses).
Serum samples for pharmacokinetic investigations were collected at time 0 (predose) and 2, 4, 8, and 12 hours postdose on days 1 and 5. Pharmacokinetics parameters were calculated using noncompartmental methods.

[8] = test system: DENV-1, DENV-2, and DENV-4; assay: Activity against DENV in dendritic cells; format: cell-based; details: Dengue virus, Dendritic cell, DENV-1, DENV-2, DENV-4, data not shown, read-out: mean EC50 range
[9] = cited from earlier work

C#C[C@@]1(O)[C@H](O)[C@@H](CO)O[C@H]1n1ccc2c(N)ncnc21 [NITD008, reference compound]
IC50 ([1]; DENV-2 strain 32/0102 (clinical isolate), Huh-7 cells): 500 ± 200 nM | IC50 ([1]; DENV-2 strain 32/0140 (clinical isolate), Huh-7 cells): 300 nM | IC50 ([1]; DENV-2 strain 33/0051 (clinical isolate), Huh-7 cells): 400 ± 200 nM | IC50 ([1]; DENV-2 strain 33/0178 (clinical isolate), Huh-7 cells): 300 ± 200 nM | IC50 ([1]; DENV-2 strain Th36, Huh-7 cells): 500 ± 100 nM | IC50 ([2]; DENV-3 strain 33/0072 (clinical isolate), Huh-7 cells): 500 ± 200 nM | IC50 ([2]; DENV-3 strain 33/0096 (clinical isolate), Huh-7 cells): 300 ± 100 nM | IC50 ([2]; DENV-3 strain 33/0177 (clinical isolate), Huh-7 cells): 300 nM | IC50 ([2]; DENV-3 strain 33/0253 (clinical isolate), Huh-7 cells): 600 nM | IC50 ([2]; DENV-3 strain H87, Huh-7 cells): 400 ± 100 nM | IC50 ([3]; DENV-1 strain FR28 (clinical isolate)): 500 ± 100 nM | IC50 ([3]; DENV-1 strain FR34 (clinical isolate)): 500 ± 200 nM | IC50 ([3]; DENV-1 strain FR37 (clinical isolate)): 400 ± 100 nM | IC50 ([3]; DENV-1 strain FR42 (clinical isolate)): 500 ± 200 nM | IC50 ([3]; DENV-1 strain Thsman): 400 ± 100 nM | IC50 ([4]; DENV-4 strain H241, Huh-7 cells): 600 ± 100 nM | IC50 ([4]; DENV-4 strain Phili/1567, Huh-7 cells): 100 ± 100 nM | IC50 ([4]; DENV-4 strain Senga/DA, Huh-7 cells): 300 ± 100 nM | IC50 ([4]; DENV-4 strain Venz/JQ, Huh-7 cells): 200 ± 100 nM | IC50 ([5]; Huh-7 cells, range over DENV strains, read-out: Mean values of median inhibitory concentration (IC50)): 100 to 600 nM

[N-]=[N+]=N[C@]1(CO)O[C@@H](n2ccc(N)nc2=O)[C@H](O)[C@@H]1O [R1479, 4′-azidocytidine]
EC50 [6]: 1300 to 3200 nM | EC50 ([5]; Dengue virus, Huh-7, read-out: mean half maximal effective concentration (EC50) values): 1900 to 11000 nM | Cmax [7]: 25 to 145 µM | mean Cmin concentrations that may need to be exceeded for antiviral effects on DENV [7]: 6.7 to 39 µM | Cmax ([7]; 1500 mg, Cmax): 16.5 µM | Cmax ([7]; 1500 mg, plasma Cmax of R1479): > 6 µM | Cmax ([7]; 3000 mg, Cmax): 23.9 µM | EC50 [8]: 5200 to 6000 nM | Cmax above the HCV replicon EC50 ([9]; 500 mg balapiravir twice daily): > 5 fold | mean plasma trough level above the human serum adjusted HCV replicon EC50 ([9]; 1500 mg balapiravir twice daily): 3.5 fold | ratio of mean plasma trough level to human serum adjusted HCV replicon EC50 ([9]; 3000 mg balapiravir twice daily): 4.9 | ratio of mean plasma trough level to human serum adjusted HCV replicon EC50 ([9]; 4500 mg balapiravir twice daily): 7.8
